Values of other authors in US20060191043A1, “Low maintenance turfgrass” (priority 2004, published 2006).

Legend:
[1] = molecular target: native EPSPS from E. coli (Escherichia coli, UniProt P0A6D3); conditions: read-out: apparent Km for PEP
[2] = molecular target: glyphosate-resistant EPSPS isolate having a single amino acid substitution of an alanine for the glycine at position 96 (Escherichia coli, UniProt P0A6D3, G96A); conditions: alanine for glycine at position 96, read-out: apparent Ki for glyphosate
Sequence of glyphosate-resistant EPSPS isolate having a single amino acid substitution of an alanine for the glycine at position 96 (P0A6D3 whole entry G96A): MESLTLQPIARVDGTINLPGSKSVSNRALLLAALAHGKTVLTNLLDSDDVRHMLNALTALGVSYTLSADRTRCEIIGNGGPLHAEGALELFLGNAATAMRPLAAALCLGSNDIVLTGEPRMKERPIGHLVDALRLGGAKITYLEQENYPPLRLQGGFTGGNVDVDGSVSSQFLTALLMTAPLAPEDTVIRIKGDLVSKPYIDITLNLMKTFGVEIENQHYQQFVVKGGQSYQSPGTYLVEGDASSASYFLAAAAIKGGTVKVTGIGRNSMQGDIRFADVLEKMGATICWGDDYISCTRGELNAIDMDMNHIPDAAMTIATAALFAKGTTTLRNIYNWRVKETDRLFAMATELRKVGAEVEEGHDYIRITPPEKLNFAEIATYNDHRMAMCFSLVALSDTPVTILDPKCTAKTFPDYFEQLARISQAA

Sequence of native EPSPS from E. coli (P0A6D3 whole entry): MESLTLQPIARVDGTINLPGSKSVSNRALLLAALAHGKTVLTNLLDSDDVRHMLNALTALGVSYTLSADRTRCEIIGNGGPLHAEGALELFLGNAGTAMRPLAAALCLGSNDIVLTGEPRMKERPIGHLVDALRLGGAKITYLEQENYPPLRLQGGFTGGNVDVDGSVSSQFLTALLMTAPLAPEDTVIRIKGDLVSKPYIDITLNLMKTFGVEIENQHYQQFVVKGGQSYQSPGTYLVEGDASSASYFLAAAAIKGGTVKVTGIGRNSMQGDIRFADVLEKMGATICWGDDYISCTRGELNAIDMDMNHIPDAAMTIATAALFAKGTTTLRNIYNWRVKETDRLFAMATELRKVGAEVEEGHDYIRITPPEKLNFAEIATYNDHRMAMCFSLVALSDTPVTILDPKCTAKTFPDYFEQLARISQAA

Row | SMILES | Km [1] [µM] | Ki [2] [mM]
1 | C=C(OP(=O)(O)O)C(=O)O [PEP] | 10 | 
2 | O=C(O)CNCP(=O)(O)O [glyphosate, N-phosphonomethylglycine] |  | 4
